Test results: the NIST ThermoML archive (doi:10.1016/j.jct.2014.12.023)
Numbers after ± are expanded uncertainties.

Experiment: activity coefficient (dimensionless); of the first substance listed, at infinite dilution; xn = mol fraction of the nth substance listed
Settings: 87.4 kPa, Liquid, Chromatography, x1 = 0

| SMILES | activity coefficient (313 K) | activity coefficient (323 K) | activity coefficient (333 K) | activity coefficient (343 K) |
| --- | --- | --- | --- | --- |
| ClCCCl [1,2-dichloroethane] + O=S(=O)([N-]S(=O)(=O)C(F)(F)F)C(F)(F)F.O=S(=O)([N-]S(=O)(=O)C(F)(F)F)C(F)(F)F.c1ccc2cc(C[N+]3(CCCCCCCCC[N+]4(Cc5ccc6ccccc6c5)CCCC4)CCCC3)ccc2c1 | 0.568 ± 0.032 | 0.569 ± 0.032 | 0.596 ± 0.033 | 0.613 ± 0.033 |
| Cc1ccccc1C [1,2-dimethylbenzene] + O=S(=O)([N-]S(=O)(=O)C(F)(F)F)C(F)(F)F.O=S(=O)([N-]S(=O)(=O)C(F)(F)F)C(F)(F)F.c1ccc2cc(C[N+]3(CCCCCCCCC[N+]4(Cc5ccc6ccccc6c5)CCCC4)CCCC3)ccc2c1 | 0.84 ± 0.039 | 0.852 ± 0.039 | 0.864 ± 0.04 | 0.894 ± 0.041 |
| Cc1cccc(C)c1 [1,3-dimethylbenzene] + O=S(=O)([N-]S(=O)(=O)C(F)(F)F)C(F)(F)F.O=S(=O)([N-]S(=O)(=O)C(F)(F)F)C(F)(F)F.c1ccc2cc(C[N+]3(CCCCCCCCC[N+]4(Cc5ccc6ccccc6c5)CCCC4)CCCC3)ccc2c1 | 0.857 ± 0.042 | 0.924 ± 0.042 | 0.941 ± 0.042 | 0.996 ± 0.045 |
| Cc1ccc(C)cc1 [1,4-dimethylbenzene] + O=S(=O)([N-]S(=O)(=O)C(F)(F)F)C(F)(F)F.O=S(=O)([N-]S(=O)(=O)C(F)(F)F)C(F)(F)F.c1ccc2cc(C[N+]3(CCCCCCCCC[N+]4(Cc5ccc6ccccc6c5)CCCC4)CCCC3)ccc2c1 | 0.881 ± 0.04 | 0.9 ± 0.041 | 0.929 ± 0.042 | 0.992 ± 0.045 |
| C1COCCO1 [1,4-dioxane] + O=S(=O)([N-]S(=O)(=O)C(F)(F)F)C(F)(F)F.O=S(=O)([N-]S(=O)(=O)C(F)(F)F)C(F)(F)F.c1ccc2cc(C[N+]3(CCCCCCCCC[N+]4(Cc5ccc6ccccc6c5)CCCC4)CCCC3)ccc2c1 | 0.382 ± 0.029 | 0.397 ± 0.029 | 0.413 ± 0.03 | 0.451 ± 0.031 |
| CC(=O)O [acetic acid] + O=S(=O)([N-]S(=O)(=O)C(F)(F)F)C(F)(F)F.O=S(=O)([N-]S(=O)(=O)C(F)(F)F)C(F)(F)F.c1ccc2cc(C[N+]3(CCCCCCCCC[N+]4(Cc5ccc6ccccc6c5)CCCC4)CCCC3)ccc2c1 | 0.824 ± 0.04 | 0.767 ± 0.038 | 0.746 ± 0.036 | 0.74 ± 0.036 |
| CC#N [acetonitrile] + O=S(=O)([N-]S(=O)(=O)C(F)(F)F)C(F)(F)F.O=S(=O)([N-]S(=O)(=O)C(F)(F)F)C(F)(F)F.c1ccc2cc(C[N+]3(CCCCCCCCC[N+]4(Cc5ccc6ccccc6c5)CCCC4)CCCC3)ccc2c1 | 0.339 ± 0.028 | 0.341 ± 0.028 | 0.349 ± 0.028 | 0.372 ± 0.029 |
| O=Cc1ccccc1 [benzaldehyde] + O=S(=O)([N-]S(=O)(=O)C(F)(F)F)C(F)(F)F.O=S(=O)([N-]S(=O)(=O)C(F)(F)F)C(F)(F)F.c1ccc2cc(C[N+]3(CCCCCCCCC[N+]4(Cc5ccc6ccccc6c5)CCCC4)CCCC3)ccc2c1 | 0.997 ± 0.044 | 0.997 ± 0.044 | 0.998 ± 0.044 | 0.999 ± 0.044 |
| c1ccccc1 [benzene] + O=S(=O)([N-]S(=O)(=O)C(F)(F)F)C(F)(F)F.O=S(=O)([N-]S(=O)(=O)C(F)(F)F)C(F)(F)F.c1ccc2cc(C[N+]3(CCCCCCCCC[N+]4(Cc5ccc6ccccc6c5)CCCC4)CCCC3)ccc2c1 | 0.515 ± 0.031 | 0.517 ± 0.031 | 0.52 ± 0.031 | 0.574 ± 0.034 |
| CCCC=O [butanal] + O=S(=O)([N-]S(=O)(=O)C(F)(F)F)C(F)(F)F.O=S(=O)([N-]S(=O)(=O)C(F)(F)F)C(F)(F)F.c1ccc2cc(C[N+]3(CCCCCCCCC[N+]4(Cc5ccc6ccccc6c5)CCCC4)CCCC3)ccc2c1 | 0.448 ± 0.03 | 0.464 ± 0.03 | 0.487 ± 0.03 | 0.491 ± 0.03 |
| C1CCCCC1 [cyclohexane] + O=S(=O)([N-]S(=O)(=O)C(F)(F)F)C(F)(F)F.O=S(=O)([N-]S(=O)(=O)C(F)(F)F)C(F)(F)F.c1ccc2cc(C[N+]3(CCCCCCCCC[N+]4(Cc5ccc6ccccc6c5)CCCC4)CCCC3)ccc2c1 | 3.83 ± 0.22 | 3.35 ± 0.19 | 2.98 ± 0.17 | 2.49 ± 0.16 |
| O=C1CCCCC1 [cyclohexanone] + O=S(=O)([N-]S(=O)(=O)C(F)(F)F)C(F)(F)F.O=S(=O)([N-]S(=O)(=O)C(F)(F)F)C(F)(F)F.c1ccc2cc(C[N+]3(CCCCCCCCC[N+]4(Cc5ccc6ccccc6c5)CCCC4)CCCC3)ccc2c1 | 0.998 ± 0.044 | 0.998 ± 0.044 | 0.999 ± 0.044 | 1 ± 0.044 |
| O=C1CCCC1 [cyclopentanone] + O=S(=O)([N-]S(=O)(=O)C(F)(F)F)C(F)(F)F.O=S(=O)([N-]S(=O)(=O)C(F)(F)F)C(F)(F)F.c1ccc2cc(C[N+]3(CCCCCCCCC[N+]4(Cc5ccc6ccccc6c5)CCCC4)CCCC3)ccc2c1 | 0.318 ± 0.028 | 0.324 ± 0.028 | 0.33 ± 0.028 | 0.347 ± 0.028 |
| CCO [ethanol] + O=S(=O)([N-]S(=O)(=O)C(F)(F)F)C(F)(F)F.O=S(=O)([N-]S(=O)(=O)C(F)(F)F)C(F)(F)F.c1ccc2cc(C[N+]3(CCCCCCCCC[N+]4(Cc5ccc6ccccc6c5)CCCC4)CCCC3)ccc2c1 | 1 ± 0.044 | 1.01 ± 0.045 | 0.937 ± 0.043 | 0.891 ± 0.041 |
| CCOC(C)=O [ethyl acetate] + O=S(=O)([N-]S(=O)(=O)C(F)(F)F)C(F)(F)F.O=S(=O)([N-]S(=O)(=O)C(F)(F)F)C(F)(F)F.c1ccc2cc(C[N+]3(CCCCCCCCC[N+]4(Cc5ccc6ccccc6c5)CCCC4)CCCC3)ccc2c1 | 0.541 ± 0.032 | 0.565 ± 0.032 | 0.601 ± 0.033 | 0.628 ± 0.034 |
| CCCCCCC [heptane] + O=S(=O)([N-]S(=O)(=O)C(F)(F)F)C(F)(F)F.O=S(=O)([N-]S(=O)(=O)C(F)(F)F)C(F)(F)F.c1ccc2cc(C[N+]3(CCCCCCCCC[N+]4(Cc5ccc6ccccc6c5)CCCC4)CCCC3)ccc2c1 | 6.72 ± 0.38 | 5.97 ± 0.33 | 5.44 ± 0.31 | 4.65 ± 0.29 |
| CCCCCC [hexane] + O=S(=O)([N-]S(=O)(=O)C(F)(F)F)C(F)(F)F.O=S(=O)([N-]S(=O)(=O)C(F)(F)F)C(F)(F)F.c1ccc2cc(C[N+]3(CCCCCCCCC[N+]4(Cc5ccc6ccccc6c5)CCCC4)CCCC3)ccc2c1 | 4.73 ± 0.24 | 3.9 ± 0.2 | – | – |
| CO [methanol] + O=S(=O)([N-]S(=O)(=O)C(F)(F)F)C(F)(F)F.O=S(=O)([N-]S(=O)(=O)C(F)(F)F)C(F)(F)F.c1ccc2cc(C[N+]3(CCCCCCCCC[N+]4(Cc5ccc6ccccc6c5)CCCC4)CCCC3)ccc2c1 | 0.821 ± 0.038 | – | – | – |
| CCCCCCCC [octane] + O=S(=O)([N-]S(=O)(=O)C(F)(F)F)C(F)(F)F.O=S(=O)([N-]S(=O)(=O)C(F)(F)F)C(F)(F)F.c1ccc2cc(C[N+]3(CCCCCCCCC[N+]4(Cc5ccc6ccccc6c5)CCCC4)CCCC3)ccc2c1 | 8.51 ± 0.48 | 7.57 ± 0.41 | 7.4 ± 0.39 | 6.71 ± 0.37 |
| CCCC(C)=O [pentan-2-one] + O=S(=O)([N-]S(=O)(=O)C(F)(F)F)C(F)(F)F.O=S(=O)([N-]S(=O)(=O)C(F)(F)F)C(F)(F)F.c1ccc2cc(C[N+]3(CCCCCCCCC[N+]4(Cc5ccc6ccccc6c5)CCCC4)CCCC3)ccc2c1 | 0.432 ± 0.029 | 0.437 ± 0.029 | 0.444 ± 0.03 | 0.448 ± 0.03 |
| CCCO [propan-1-ol] + O=S(=O)([N-]S(=O)(=O)C(F)(F)F)C(F)(F)F.O=S(=O)([N-]S(=O)(=O)C(F)(F)F)C(F)(F)F.c1ccc2cc(C[N+]3(CCCCCCCCC[N+]4(Cc5ccc6ccccc6c5)CCCC4)CCCC3)ccc2c1 | 1.33 ± 0.083 | 1.07 ± 0.057 | 1.02 ± 0.045 | 1.01 ± 0.044 |
| CC(C)O [propan-2-ol] + O=S(=O)([N-]S(=O)(=O)C(F)(F)F)C(F)(F)F.O=S(=O)([N-]S(=O)(=O)C(F)(F)F)C(F)(F)F.c1ccc2cc(C[N+]3(CCCCCCCCC[N+]4(Cc5ccc6ccccc6c5)CCCC4)CCCC3)ccc2c1 | 1.21 ± 0.061 | 1.09 ± 0.051 | 1.05 ± 0.048 | 0.992 ± 0.045 |
| c1ccncc1 [pyridine] + O=S(=O)([N-]S(=O)(=O)C(F)(F)F)C(F)(F)F.O=S(=O)([N-]S(=O)(=O)C(F)(F)F)C(F)(F)F.c1ccc2cc(C[N+]3(CCCCCCCCC[N+]4(Cc5ccc6ccccc6c5)CCCC4)CCCC3)ccc2c1 | 0.263 ± 0.028 | 0.266 ± 0.028 | 0.27 ± 0.028 | 0.287 ± 0.028 |
| ClC(Cl)(Cl)Cl [tetrachloromethane] + O=S(=O)([N-]S(=O)(=O)C(F)(F)F)C(F)(F)F.O=S(=O)([N-]S(=O)(=O)C(F)(F)F)C(F)(F)F.c1ccc2cc(C[N+]3(CCCCCCCCC[N+]4(Cc5ccc6ccccc6c5)CCCC4)CCCC3)ccc2c1 | 1.45 ± 0.07 | 1.47 ± 0.071 | 1.51 ± 0.073 | 1.52 ± 0.074 |
| Cc1ccccc1 [toluene] + O=S(=O)([N-]S(=O)(=O)C(F)(F)F)C(F)(F)F.O=S(=O)([N-]S(=O)(=O)C(F)(F)F)C(F)(F)F.c1ccc2cc(C[N+]3(CCCCCCCCC[N+]4(Cc5ccc6ccccc6c5)CCCC4)CCCC3)ccc2c1 | 0.714 ± 0.035 | 0.721 ± 0.035 | 0.723 ± 0.036 | 0.727 ± 0.036 |
| CCN(CC)CC [triethylamine] + O=S(=O)([N-]S(=O)(=O)C(F)(F)F)C(F)(F)F.O=S(=O)([N-]S(=O)(=O)C(F)(F)F)C(F)(F)F.c1ccc2cc(C[N+]3(CCCCCCCCC[N+]4(Cc5ccc6ccccc6c5)CCCC4)CCCC3)ccc2c1 | 0.762 ± 0.098 | 1.22 ± 0.081 | 1.35 ± 0.068 | 1.45 ± 0.072 |
